Molecules are shown by their SMILES. Where two headings read alike, the source gives them in different places.

28 compounds from patent publication US20150290200A1, “INTRACELLULAR KINASE INHIBITORS” (Pharmacyclics Inc., priority 2006, published 2015) can be followed below.

In one assay the target is T1, BTK kinase domain (Homo sapiens, UniProt Q06187).
T1 construct: The kinase domains of BTK, LCK and ERK were expressed as recombinant purified proteins; made in house
The experiment in a line: In vitro kinase assay (HITHUNTER), BTK. Type of assay: biochemical. The settings on record: Table 2. The text has this: (§1) Similarly, commercially available reagents such as HITHUNTER™ were used to evaluate the effect of compounds on the activity of additional kinases. The kinase domains of BTK, LCK and ERK were expressed as recombinant purified proteins were used for these studies.

The target in another assay is T2, ITK kinase domain (Homo sapiens, UniProt Q08881).
T2 construct: N-terminally His-tagged ITK kinase domain (amino acids 352-617); His (N); made in house
T2 sequence (Q08881 352-617): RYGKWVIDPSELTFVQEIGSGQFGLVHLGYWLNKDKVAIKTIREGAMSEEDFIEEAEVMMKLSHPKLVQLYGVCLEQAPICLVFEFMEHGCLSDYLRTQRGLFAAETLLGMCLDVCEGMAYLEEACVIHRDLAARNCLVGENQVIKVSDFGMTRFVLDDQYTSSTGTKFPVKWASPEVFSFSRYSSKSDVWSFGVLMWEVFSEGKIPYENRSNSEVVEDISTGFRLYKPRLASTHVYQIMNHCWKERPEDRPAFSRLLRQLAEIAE
The experiment in a line: In vitro kinase assay (HITHUNTER enzyme fragment complementation), ITK. Format: biochemical. On the procedure:
Compounds were screened using the HITHUNTER™ enzyme fragment complementation method (Discoverx). Briefly, a recombinantly produced, N-terminally His-tagged ITK kinase domain (amino acids 352-617) was incubated with various concentrations of individual compounds. ATP and substrate were added, and the kinase reaction was allowed to proceed for 2-16 hours. Commercially available detection reagents were added and allowed to react for 2-4 hours. The reaction was evaluated by luminescence. Initial results were confirmed using full-length recombinant ITK protein.
(§2) In order to confirm the mechanism by which compounds depicted herein interact with the kinase domain of Tec and EGFR kinases, we created a point mutant of the ITK kinase domain, whereby the key amino acid, namely C442 was mutated to alanine. The protein was expressed in a commercial baculovirus expression system using the manufacturer's general protocol (Invitrogen, pBlueBac). Protein was expressed and purified using standard techniques. […] While the activity of WT-ITK was inhibited by compounds depicted in this application, the same compounds had no activity towards the C442A mutant kinase domain.

In the next assay the target is T3, LCK kinase domain (Homo sapiens, UniProt P06239).
T3 construct: The kinase domains of BTK, LCK and ERK were expressed as recombinant purified proteins; made in house
T3 sequence (P06239 245-498 limits assumed, species assumed): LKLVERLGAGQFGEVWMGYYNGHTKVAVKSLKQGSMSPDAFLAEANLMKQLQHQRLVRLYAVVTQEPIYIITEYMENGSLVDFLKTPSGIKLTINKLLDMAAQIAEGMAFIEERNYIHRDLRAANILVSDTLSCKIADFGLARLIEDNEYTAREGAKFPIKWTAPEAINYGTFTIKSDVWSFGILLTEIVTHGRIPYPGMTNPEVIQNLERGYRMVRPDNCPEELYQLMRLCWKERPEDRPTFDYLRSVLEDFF
The experiment in a line: In vitro kinase assay (HITHUNTER), LCK. Type of assay: biochemical. The settings on record: Table 2.
Excerpt: as §1

Assay [1] relates to T cell leukemia/lymphoma cells. The experiment in a line: Mouse in vivo tumor model, peritoneal lavage and FACS analysis. Further details: species or system NOD/SCID mice. Particulars: ip, intraperitoneal, relative to mock group treated with vehicle, read-out: % inhibition tumor growth. On the procedure:
Several representative compounds were evaluated for efficacy in mouse in vivo tumor models. NOD/SCID mice were implanted intraperitoneally with T cell leukemia/lymphoma cells. One group was treated with vehicle alone (mock treatment) while the other groups were treated with several small molecule inhibitors via intraperitoneal route. Tumor growth was evaluated by peritoneal lavage and FACS analysis. Table 6 summarizes percent inhibition of tumor growth relative to a mock group treated with vehicle alone.

Another assay has as its target T4, C442A-ITK kinase domain (Homo sapiens, UniProt Q08881, C442A).
T4 construct: we created a point mutant of the ITK kinase domain; made in house; host or cells: baculovirus expression system (Invitrogen, pBlueBac)
T4 sequence (Q08881 363-615 C442A limits assumed): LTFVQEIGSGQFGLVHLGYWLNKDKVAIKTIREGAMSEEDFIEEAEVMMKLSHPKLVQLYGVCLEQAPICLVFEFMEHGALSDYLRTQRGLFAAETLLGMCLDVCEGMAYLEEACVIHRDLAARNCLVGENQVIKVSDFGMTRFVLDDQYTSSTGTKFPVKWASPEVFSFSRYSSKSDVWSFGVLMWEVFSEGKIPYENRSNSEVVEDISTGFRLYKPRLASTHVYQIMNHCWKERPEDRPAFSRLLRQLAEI
The experiment in a line: In vitro kinase assay, C442A point mutant of ITK kinase domain. The settings on record: Table 8. Format: biochemical.
Excerpt: as §2

The mark [2] stands for this setting: Table 8, wild type ITK kinase domain, read-out: IC50 wild-type ITK.

T1 sequence (Q06187 402-655 limits assumed): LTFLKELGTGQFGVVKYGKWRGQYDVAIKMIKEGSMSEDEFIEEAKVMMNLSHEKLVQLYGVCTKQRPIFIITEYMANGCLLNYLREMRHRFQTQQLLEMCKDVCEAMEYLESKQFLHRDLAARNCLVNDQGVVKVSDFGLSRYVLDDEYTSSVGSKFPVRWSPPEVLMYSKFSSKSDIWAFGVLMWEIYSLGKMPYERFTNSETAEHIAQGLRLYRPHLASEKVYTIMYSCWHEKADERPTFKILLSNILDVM

For the compound `O=C(CCN1CCOCC1)c1ccc(-c2ccccc2)cc1`, the IC50 against BTK kinase domain worked out at 0.0369 µM; on ITK kinase domain (Table 2, read-out: IC50 ITK), 0.0402 µM; on LCK kinase domain, 8.04 µM.

In the case of `O=C(CCN1CCOCC1)c1ccccc1C(F)(F)F`, the IC50 against BTK kinase domain is 1.02 µM; at ITK kinase domain (Table 2, read-out: IC50 ITK) it was 0.569 µM. Also, on LCK kinase domain, the “IC50 LCK” value is “NO IC50”.

Turning to `Cc1ccccc1C(=O)CCN1CCOCC1`, the IC50 on BTK kinase domain is 2.31 µM; on ITK kinase domain (Table 2, read-out: IC50 ITK), 0.611 µM. The “IC50 LCK” value against LCK kinase domain is on record as “NO IC50”.

Turning to `O=C(CCN1CCOCC1)c1cc(F)ccc1Cl`, the IC50 against BTK kinase domain came to 0.993 µM; on ITK kinase domain (Table 2, read-out: IC50 ITK), 0.935 µM; on LCK kinase domain it was 29.5 µM.

On to `O=C(CCN1CCOCC1)c1cc(F)ccc1F`, for which the IC50 on BTK kinase domain was 2.58 µM; at ITK kinase domain (Table 2, read-out: IC50 ITK), 0.874 µM. The “IC50 LCK” value against LCK kinase domain was “NO IC50”.

For the compound `CCOc1ccccc1C(=O)CCN1CCOCC1`, the IC50 against BTK kinase domain worked out at 0.556 µM; at ITK kinase domain (Table 2, read-out: IC50 ITK), 1.28 µM; on LCK kinase domain, 705 µM.

In the case of `O=C(CCN1CCOCC1)c1ccc(N2CCOCC2)cc1`, the IC50 at BTK kinase domain came out at 4.14 µM; on ITK kinase domain (Table 2, read-out: IC50 ITK), 1.41 µM; at LCK kinase domain, 27.1 µM.

As for `CN(CCC(=O)C1=CC2NCC(=O)OC2C=C1)Cc1ccc(F)cc1` (centres unmarked), the inhibition in vivo at 80 mg/kg in assay [1] is 90 to 99%.

Take `CN(C)C1CCN(CCC(=O)C2=CC3NCC(=O)OC3C=C2)CC1` (centres unmarked): the inhibition in vivo at 80 mg/kg in assay [1] came out at 99%.

As for `CN(C)C1CCN(CCC(=O)c2ccc3c(c2)NC(=O)CO3)C1` (centres unmarked), the inhibition in vivo at 100 mg/kg in assay [1] stood at 99%.

Turning to `O=C(CCN1CCOCC1)c1ccc(-c2cccnc2)cc1`, the inhibition in vivo at 100 mg/kg in assay [1] is 99%.

For `COc1ccc(C(=O)CCN2CCC(N(C)C)CC2)cc1OC`, the inhibition in vivo at 80 mg/kg in assay [1] fell in the range of 81 to 95%.

Take `O=C1COc2ccc(C(=O)CCN3CCOCC3)cc2N1` [drawing 120]: the IC50 against BTK kinase domain was 0.276 µM; at ITK kinase domain (Table 2, read-out: IC50 ITK) it was 0.04 µM; on LCK kinase domain, 2.89 µM.

In the case of `O=C(CCN1CCOCC1)c1ccc(F)cc1` [drawing 122], the IC50 at BTK kinase domain worked out at 1.41 µM; at ITK kinase domain (Table 2, read-out: IC50 ITK), 0.013 µM; against LCK kinase domain, 27.7 µM.

`COc1ccc(C(=O)CCN2CCOCC2)cc1OC` [drawing 124]: the concentration for half-maximal inhibition (IC50) on BTK kinase domain stood at 1.84 µM; on ITK kinase domain (Table 2, read-out: IC50 ITK), 0.014 µM; on LCK kinase domain, 23.9 µM.

Regarding `O=C(CCN1CCOCC1)c1ccc2ccccc2c1` [drawing 129], the half-maximal inhibitory concentration (IC50) stood at 0.039 µM against BTK kinase domain; 0.036 µM on ITK kinase domain (Table 2, read-out: IC50 ITK); 20 µM against LCK kinase domain.

In the case of `CN(C)C1CCN(CCC(=O)c2ccc3ccccc3c2)C1` (centres unmarked) [drawing 240], in assay [1], the inhibition in vivo at 100 mg/kg fell in the range of 70 to 90%.

For the compound `O=C(CCN1CCOCC1)c1ccc2ccccc2c1` [drawing 241], the inhibition in vivo at 100 mg/kg in assay [1] was in the range of 85 to 98%.

Turning to `COc1ccc(C(=O)CCN2CCOCC2)cc1OC` [drawing 242], the inhibition in vivo at 80 mg/kg in assay [1] fell in the range of 92 to 99%.

Consider `O=C(CCN1CCOCC1)c1ccc(F)cc1` [drawing 243], for which the inhibition in vivo at 80 mg/kg in assay [1] was 50 to 80%.

In the case of `O=C(CCN1CCOCC1)c1ccc2occc2c1` [drawing 246], the inhibition in vivo at 80 mg/kg in assay [1] lay in the range of 67 to 81%.

With `O=C(CCN1CCOCC1)c1cc2ccccc2cn1` [drawing 247], the inhibition in vivo at 80 mg/kg in assay [1] lay in the range of 92 to 99%.

Regarding `COc1cc2c(cc1OC)CN(CCC(=O)c1ccc3c(c1)NC(=O)CO3)CC2` [drawing 249], the inhibition in vivo at 80 mg/kg in assay [1] fell in the range of 97 to 99%.

Consider `NC(=O)c1ccc2cc(C(=O)CCN3CCOCC3)ccc2c1` [drawing 250], for which the inhibition in vivo at 30 mg/kg in assay [1] (30 mg/kg) came out at 99%.

As to `O=C1COc2ccc(C(=O)CCN3CCOCC3)cc2N1` [drawing 253], in assay [1] (20 mg/kg), the inhibition in vivo at 20 mg/kg is 40%.

For `CN(C)C1CCN(CCC(=O)c2ccc3ccccc3c2)C1` (centres unmarked) [drawing 257], the IC50 at ITK kinase domain (setting [2]) was 0.011 µM; against C442A-ITK kinase domain, above 10 µM.

Regarding `O=C(CCN1CCOCC1)c1ccc(F)cc1` [drawing 258], the IC50 was 0.0496 µM at ITK kinase domain (setting [2]) and above 10 µM against C442A-ITK kinase domain.

With `NC(=O)c1ccc2cc(C(=O)CCN3CCOCC3)ccc2c1` [drawing 259], the figures for the IC50 on ITK kinase domain (setting [2]) and against C442A-ITK kinase domain were 0.0111 µM and above 10 µM, respectively.
